Test results: the NIST ThermoML archive (doi:10.1016/j.jct.2009.08.017)
Numbers after ± are expanded uncertainties.

Key:
[1] = Crystal; DTA
[2] = Molar enthalpy of transition or fusion; conditions: Crystal; DSC

- Normal melting temperature [1]: 80.00 ± 0.5 °C
- Molar enthalpy of transition or fusion [2]: 28.3 ± 0.84 kJ/mol
SMILES: Clc1ccc(C(c2ccccc2Cl)C(Cl)Cl)cc1 (configuration not stated) [1,1-dichloro-2-(2-chlorophenyl)-2-(4-chlorophenyl)ethane]
